pEC50: −log10 of the molar value. Where two headings read alike, the source gives them in different places. Some results are limits rather than exact numbers.

For one test, the system named is Hennes-20 cells. Put plainly: Hennes-20 oncology screen. The conditions noted are these: 72 h, alamar Blue. The format is cell-based. Here is the method:
To screen compounds for oncology activity Hennes-20 cells were plated at low (500 cells/well) versus high (15,000 cells/well) densities and treated with DMSO (vehicle) or dose-titration of compounds. The rationale for this screen is that an intrinsically toxic compound should kill cells regardless of density, including in Hennes-20 cells. However, a compound that selectively triggers the arrest of proliferation will inhibit cell growth when plated at a low density will appear cytotoxic due to inhibition of cell growth when plated at a low density but will appear non-toxic to cells plated at a high density where the cells are approaching confluence and the readout detected by a cell viability assay is already close to the maximum.
To conduct the Hennes-20 screen, two 96 well plates were seeded with Hennes 20 cells in parallel where one was plated at a density of 500 cells/well and the other was plated at a density of 15,000 cells/well. 90 uL of minimum essential media was added to each well and plates were placed in a 37 degrees Celsius incubator for 24 hours. The next day, 10 ul of media containing dilutions of compound in DMSO were added to each plate. Six wells on each plate received 10 ul of media containing only DMSO. Each well was gently mixed 5 times with a 100 ul pipette. Plates were incubated at 37 degrees Celsius for 72 hours and then 10 uL of alamar Blue was added to each well. Wells were mixed 5 times then incubated at 37 degrees Celsius for […]. Plates were then read at 530/590.
The rationale for the screen is as follows: Hennes-20 cells lack endogenous apoptosis. Cells plated at low density will proliferate and approach confluence in 72 hrs. A drug that arrests proliferation may have its proliferation blocking effect masked by the triggering of endogenous apoptosis. However, in the Hennes line, lacking endogenous apoptosis, such an arrest is manifest as a dose-dependent maintenance at low cell density. Since the high-density cells are plated close to confluence, the difference between Alamar Blue cell survival readings after 72 hrs reflects the ability of the drug to block proliferation in the low density-plated cells. In the high density-plated cells any diminution of Alamar Blue readout vs vehicle control is due to intrinsic toxicity, not proliferation arrest, since cells were already at confluence. Thus, a compound that appears toxic (low Alamar Blue readings after 72 hrs) on the low-density plate, but which appears non-toxic (high Alamar Blue readings after 72 hrs) on the high-density plate, must be arresting proliferation, since intrinsic compound toxicity should be observed at both low and high cell densities, not selectively on the low-density plate.

Another test relates to NL4-3 Rluc virus. Put plainly: microbe, parasite or virus in culture. The conditions noted are these: MT-2 cells, MOI 0.02, 96 hours. It is filed as cell-based, HIV.
The subject of a further test is VACV-LUC virus. Briefly: microbe, parasite or virus in culture. The format is cell-based. The settings on record: Orthopoxvirus vaccinia, HeLa, 2 h.
The next test has as its system E. coli ATCC25922. Put plainly: MIC assay, serial dilution. The conditions noted are these: for MIC: Escherichia coli.
A further test concerns RABV ERA strain. Briefly: organism not typed. It is filed as cell-based.
In a further test the test system is C. albicans ATCC 24433. Put plainly: Antifungal MIC assay. The settings on record: Candida albicans, ATCC24433.
Another test concerns S. aureus ATCC25923. Put plainly: MIC assay, serial dilution. The conditions noted are these: Staphylococcus aureus.
The test system of a further test is A. baumannii ATCC19606. Briefly: MIC assay, serial dilution. The conditions noted are these: Acinetobacter baumannii.
Where [1] appears, read: Human immunodeficiency virus 1, NL43, MT2, 96 h.
The mark [2] stands for this setting: ATCC25922, read-out: Anti-bacterial Activity (E. coli MIC (uM)), E. coli, Table 5.

In the case of `CCc1cc(N2CCCC2)cc2[s+]c3cc(N4CCCC4)cc(C)c3nc12` [Compound 45], the values for the pEC50 in the test on Hennes-20 cells, in the test with NL4-3 Rluc virus (setting [1]) and in the test on VACV-LUC virus were greater than 5.60, 8.51 and greater than 5.78, respectively. Further, in the test with E. coli ATCC25922 (setting [2]), the MIC was 0.8 µM.
In the case of `CCc1cc(N(C)C)cc2[s+]c3cc(N4CCCNCC4)cc(CC)c3nc12` [Compound 87], in the test on NL4-3 Rluc virus, the pEC50 is 5.00.
For `CCc1cc(N2CCNCC2)cc2[s+]c3cc(N4CCNCC4)cc(C)c3nc12` [Compound 92], the values for the pEC50 with Hennes-20 cells and in the test with NL4-3 Rluc virus (setting [1]) were less than 4.90 and 5.37, respectively.
On to `CCc1cc(N2CCC(N)CC2)cc2[s+]c3cc(N4CCCCC4)cc(C)c3nc12` [Compound 100], for which the pEC50 in the test on NL4-3 Rluc virus (setting [1]) was 4.48. Moreover, in the test with E. coli ATCC25922 (setting [2]), the MIC is 25 µM.
With `CCc1cc(N(C)C)cc2[s+]c3cc(N4CCCC4)cc(CC)c3nc12` [Compound 36], the pEC50 is greater than 6.30 with Hennes-20 cells, 8.12 in the test with NL4-3 Rluc virus (setting [1]) and greater than 5.78 with VACV-LUC virus. In the test with E. coli ATCC25922 (setting [2]), the MIC worked out at 1.6 µM.
On to `CCc1cc(N2CCOCC2)cc2[s+]c3cc(N4CCOCC4)cc(C)c3nc12` [Compound 97], for which, in the test on NL4-3 Rluc virus (setting [1]), the pEC50 is 6.64. In addition, in the test with E. coli ATCC25922 (setting [2]), the MIC turned out to be 25 µM.
Turning to `CCc1cc(N2CCCC2)cc2[s+]c3cc(N4CCCC4)cc(C(C)C)c3nc12` [Compound 46], the pEC50 in the test on Hennes-20 cells is greater than 6.30; in the test with NL4-3 Rluc virus (setting [1]), 8.52; with RABV ERA strain, greater than 8.30. In addition, the “Anti-bacterial Activity (E. coli MIC (uM))” value in the test on E. coli ATCC25922 (E. coli, Table 5) was 3.1 µM.
As for `CC1(C)C2CN(c3cc(N4CC5C(C4)C5(C)C)c4nc5ccc(N6CCCC6)cc5[s+]c4c3)CC21` (centres unmarked) [Compound 125], the pEC50 in the test on Hennes-20 cells was 7.00. In addition, the MIC in the test on C. albicans ATCC 24433 was 6.25 µM; in the test with S. aureus ATCC25923, 12.5 µg/mL; against E. coli ATCC25922 (ATCC25922, E. coli ATCC25922) it was greater than 100 µg/mL; in the test with A. baumannii ATCC19606, greater than 100 µg/mL.
As for `CCc1cc(N2CCCNCC2)cc2[s+]c3cc(N4CCCNCC4)cc(C)c3nc12` [Compound 16], the negative-log EC50 (pEC50) with NL4-3 Rluc virus (setting [1]) was 5.32.
Regarding `Cc1cc(C(C)C)cc2[s+]c3cc(N(C)C)cc(C)c3nc12` [Compound 59], the pEC50 in the test on Hennes-20 cells was greater than 6.30; in the test on VACV-LUC virus, 6.25.
`CCc1cc(N2CCSCC2)cc2[s+]c3cc(N4CCSCC4)cc(C)c3nc12` [Compound 99]: in the test on NL4-3 Rluc virus (setting [1]), the pEC50 was 4.59. In addition, the minimal inhibitory concentration (MIC) with E. coli ATCC25922 (setting [2]) was determined as 6.3 µM.
As for `c1cc2nc3ccc(N4CC5CNCC5C4)cc3[s+]c2cc1N1CC2CNCC2C1` (centres unmarked) [Compound 134], the pEC50 with Hennes-20 cells is 4.90. In addition, the MIC with C. albicans ATCC 24433 is greater than 100 µM; in the test with S. aureus ATCC25923 it was greater than 100 µg/mL; with E. coli ATCC25922 (ATCC25922, E. coli ATCC25922), greater than 100 µg/mL; in the test on A. baumannii ATCC19606, greater than 100 µg/mL.
On to `CCc1cc(N2CCC(N(C)C)CC2)cc2[s+]c3cc(N4CCC(N(C)C)CC4)cc(C)c3nc12` [Compound 98], for which, in the test on NL4-3 Rluc virus (setting [1]), the pEC50 is 4.42.
`c1cc2nc3c(N4CCNCC4)cc(N4CCCC4)cc3[s+]c2cc1N1CCCC1` [Compound 120]: the pEC50 in the test with Hennes-20 cells was 4.90. Further, the minimum inhibitory concentration (MIC) in the test with C. albicans ATCC 24433 is 100 µM; with S. aureus ATCC25923, 100 µg/mL; against E. coli ATCC25922 (ATCC25922, E. coli ATCC25922), greater than 100 µg/mL; against A. baumannii ATCC19606, greater than 100 µg/mL.
With `CN(C)c1ccc2nc3c(C(C)(C)C)cc(N(C)C)cc3[s+]c2c1` [Compound 66], the pEC50 with Hennes-20 cells is greater than 6.30; in the test with VACV-LUC virus, 5.78.
Regarding `c1cc2nc3ccc(N4CCCC4)cc3[s+]c2cc1N1CCCC1` [Compound 68], the values for the pEC50 in the test with Hennes-20 cells, with NL4-3 Rluc virus (setting [1]) and in the test on VACV-LUC virus were greater than 6.30, 7.38 and greater than 6.25, respectively. Also, in the test on E. coli ATCC25922 (setting [2]), the MIC came out at 6.3 µM.
For the compound `CCc1cc(NC(C)C)cc2[s+]c3cc(N4CCCN(C(=O)OC(C)(C)C)CC4)cc(CC)c3nc12` [Compound 69], the pEC50 in the test with Hennes-20 cells is greater than 6.30; in the test with VACV-LUC virus, greater than 5.30.
On to `CCc1cc(N2CCCC2)cc2[s+]c3cc(N(C)C)cc(C(C)C)c3nc12` [Compound 73], for which the pEC50 with Hennes-20 cells was 6.30; in the test with NL4-3 Rluc virus (setting [1]), 8.74; in the test with VACV-LUC virus it was 5.78; in the test with RABV ERA strain it was greater than 6.30. Also, the MIC in the test on E. coli ATCC25922 (setting [2]) was 100 µM.
As to `CCc1cc(N2CCCC2)cc2[s+]c3cc(N4CCC(C)C4)cc(C)c3nc12` (centres unmarked) [Compound 57], the pEC50 with NL4-3 Rluc virus (setting [1]) is 4.77. For the same compound, in the test on E. coli ATCC25922 (setting [2]), the minimal inhibitory concentration (MIC) is 12.5 µM.
On to `CCc1cc(N(C)C)cc2[s+]c3cc(N4CCCNCC4)cc(CC)c3nc12` [Compound 83], for which the negative logarithm of the EC50 (pEC50) with Hennes-20 cells was greater than 4.90; with NL4-3 Rluc virus it was 6.57; in the test on VACV-LUC virus it was 5.78; in the test with RABV ERA strain, greater than 6.30. Moreover, in the test with E. coli ATCC25922 (setting [2]), the MIC worked out at 100 µM.
For `CCc1cc(N2CCCCCC2)cc2[s+]c3cc(N(C)C4CCNCC4)cc(CC)c3nc12` [Compound 77], the values for the pEC50 in the test with Hennes-20 cells and in the test on VACV-LUC virus were greater than 5.60 and 5.78, respectively. Moreover, the MIC with E. coli ATCC25922 (setting [2]) stood at 3.1 µM.
`CCN(CC)c1cc(N2CCCC2)cc2[s+]c3cc(N4CCCC4)ccc3nc12` [Compound 117] gave a pEC50 in the test with Hennes-20 cells of 4.90. Further, the MIC in the test with C. albicans ATCC 24433 amounted to 1.6 µM; against S. aureus ATCC25923, 1.6 µg/mL; in the test with E. coli ATCC25922 (ATCC25922, E. coli ATCC25922), 25 µg/mL; in the test on A. baumannii ATCC19606, 12.5 µg/mL.

These data come from patent US20240300940A1, “Phenothiazinyl Compounds and Uses” (Prosetta Biosciences, Inc., priority 2023, published 2024).
